Laboratory results reported in patent publication US20150105252A1, “SUBSTITUTED PYRAZOLES AS HERBICIDES” (E I DU PONT DE NEMOURS AND COMPANY, priority 2013, published 2015).

How the values were obtained:
[1] = test system: morningglory; experiment: Test A postemergence; format: in vivo, Ipomoea spp.
From the text: (§1) Seeds of plant species selected from barnyardgrass (Echinochloa crus-galli), kochia (Kochia scoparia), common ragweed (Ambrosia elation), Italian ryegrass (Lolium multiflorum), crabgrass, large (large crabgrass, Digitaria sanguinalis), foxtail, giant (giant foxtail, Setaria faberii), morningglory (Ipomoea spp.), pigweed (redroot pigweed, Amaranthus retroflexus), velvetleaf (Abutilon theophrasti), wheat (Triticum aestivum), and corn (Zea mays) were planted into a blend of loam soil and sand and treated preemergence with a directed soil spray using test chemicals formulated in a non-phytotoxic solvent mixture which included a surfactant.
(§2) At the same time, plants selected from these crop and weed species and also blackgrass (Alopecurus myosuroides), and galium (catchweed bedstraw, Galium aparine) were planted in pots containing the same blend of loam soil and sand and treated with postemergence applications of test chemicals formulated in the same manner. Plants ranged in height from 2 to 10 cm and were in the one- to two-leaf stage for the postemergence treatment. Treated plants and untreated controls were maintained in a greenhouse for approximately 10 days, after which time all treated plants were compared to untreated controls and visually evaluated for injury. Plant response ratings, summarized in Table A, are based on a 0 to 100 scale where 0 is no effect and 100 is complete control. A dash (-) response means no test result.

[2] = test system: morningglory; experiment: Test A preemergence; format: in vivo, Ipomoea spp.; settings: 0 to 100 scale
From the text: as §1, §2

[3] = test system: velvetleaf; experiment: Test A postemergence; format: in vivo, Abutilon theophrasti
From the text: as §1, §2

[4] = test system: wheat; experiment: Test A preemergence; format: in vivo, Triticum aestivum; settings: 0 to 100 scale
From the text: as §1, §2

[5] = test system: barnyardgrass; experiment: Test A preemergence; format: in vivo, Echinochloa crus-galli; settings: 0 to 100 scale
From the text: as §1, §2

[6] = test system: pigweed; experiment: Test A postemergence; format: in vivo, Amaranthus retroflexus
From the text: as §1, §2

[7] = test system: pigweed; experiment: Test A preemergence; format: in vivo, Amaranthus retroflexus; settings: Preemergence, 0 to 100 scale, 0 no effect, 100 complete control
From the text: as §1, §2

[8] = test system: corn; experiment: Test A preemergence; format: in vivo, Zea mays; settings: 0 to 100 scale
From the text: as §1, §2

[9] = test system: barnyardgrass; experiment: Test A postemergence; format: in vivo, Echinochloa crus-galli; settings: Postemergence
From the text: as §1, §2

[10] = test system: velvetleaf; experiment: Test A preemergence; format: in vivo, Abutilon theophrasti; settings: 0 to 100 scale
From the text: as §1, §2

[11] = test system: crabgrass, large; experiment: Test A preemergence; format: in vivo, Digitaria sanguinalis; settings: 0 to 100 scale
From the text: as §1, §2

[12] = test system: crabgrass, large; experiment: Test A postemergence; format: in vivo, Digitaria sanguinalis
From the text: as §1, §2

[13] = test system: foxtail, giant; experiment: Test A preemergence; format: in vivo, Setaria faberii; settings: 0 to 100 scale
From the text: as §1, §2

[14] = test system: foxtail, giant; experiment: Test A postemergence; format: in vivo, Setaria faberii
From the text: as §1, §2

[15] = test system: wheat; experiment: Test A postemergence; format: in vivo, Triticum aestivum
From the text: as §1, §2

[16] = test system: corn; experiment: Test A postemergence; format: in vivo, Zea mays
From the text: as §1, §2

[17] = Postemergence, 500 g ai/ha, visual rating after approx. 10 days, 0 to 100 scale (0 no effect, 100 complete control)
[18] = postemergence, 125 g ai/ha, about 10 days, visual rating on 0 to 100 scale (0 no effect, 100 complete control)
[19] = Preemergence, 500 g ai/ha, 0 no effect, 100 complete control
[20] = preemergence, 125 g ai/ha, visual injury, approx. 10 days
[21] = 125 g ai/ha, 0 to 100 scale, 0 no effect, 100 complete control
[22] = 500 g ai/ha, visual rating after approx. 10 days, 0 to 100 scale (0 no effect, 100 complete control)
[23] = Postemergence, 1000 g ai/ha, visual rating after approx. 10 days, 0 to 100 scale (0 no effect, 100 complete control)
[24] = Preemergence, 1000 g ai/ha, 0 no effect, 100 complete control
[25] = 1000 g ai/ha, visual rating after approx. 10 days, 0 to 100 scale (0 no effect, 100 complete control)
[26] = Postemergence, 125 g ai/ha, 0 to 100 scale, 0 no effect, 100 complete control

Cc1cc(C(=O)NCC(F)(F)F)nn1Cc1cccc(C(F)(F)F)c1F [Compound 9]
10: Morningglory plant response rating [1, 17] | Barnyardgrass plant response rating [5, 19] | Barnyardgrass plant response rating [9, 22]
20: Crabgrass, Large plant response rating [11, 19] | Foxtail, Giant plant response rating [13, 19]
30: Pigweed plant response rating ([7]; 500 g ai/ha)
0: Morningglory plant response rating [1, 18] | Morningglory plant response rating [2, 19] | Morningglory plant response rating [2, 20] | Velvetleaf plant response rating [3, 17] | Velvetleaf plant response rating [3, 18] | Wheat plant response rating [4, 20] | Barnyardgrass plant response rating [5, 20] | Pigweed plant response rating [6, 17] | Pigweed plant response rating [6, 18] | Corn plant response rating [8, 19] | Corn plant response rating [8, 20] | Barnyardgrass plant response rating [9, 21] | Velvetleaf plant response rating [10, 19] | Velvetleaf plant response rating [10, 20] | Crabgrass, Large plant response rating [11, 20] | Crabgrass, Large plant response rating [12, 17] | Crabgrass, Large plant response rating [12, 18] | Foxtail, Giant plant response rating [13, 20] | Foxtail, Giant plant response rating [14, 17] | Foxtail, Giant plant response rating [14, 18] | Wheat plant response rating [15, 17] | Wheat plant response rating [15, 18] | Corn plant response rating [16, 17] | Corn plant response rating [16, 18]

Cc1cc(C(=O)NCC(F)(F)F)nn1Cc1cc(F)cc(C(F)(F)F)c1 [Compound 13]
10: Crabgrass, Large plant response rating [11, 20]
30: Crabgrass, Large plant response rating [12, 17]
0: Morningglory plant response rating [2, 20] | Velvetleaf plant response rating [3, 18] | Wheat plant response rating [4, 20] | Barnyardgrass plant response rating [5, 19] | Barnyardgrass plant response rating [5, 20] | Corn plant response rating [8, 19] | Corn plant response rating [8, 20] | Barnyardgrass plant response rating [9, 21] | Velvetleaf plant response rating [10, 19] | Velvetleaf plant response rating [10, 20] | Foxtail, Giant plant response rating [13, 20] | Foxtail, Giant plant response rating [14, 18] | Wheat plant response rating [15, 17] | Wheat plant response rating [15, 18] | Corn plant response rating [16, 17] | Corn plant response rating [16, 18]
90: Pigweed plant response rating ([7]; 500 g ai/ha)
60: Pigweed plant response rating [6, 17]
40: Pigweed plant response rating [6, 18]
20: Velvetleaf plant response rating [3, 17] | Barnyardgrass plant response rating [9, 22] | Crabgrass, Large plant response rating [12, 18] | Foxtail, Giant plant response rating [14, 17]
50: Morningglory plant response rating [1, 18] | Foxtail, Giant plant response rating [13, 19]
70: Crabgrass, Large plant response rating [11, 19]
100: Morningglory plant response rating [1, 17]

CCc1cc(C(=O)NC2CC2)nn1Cc1cccc(C(F)(F)F)c1 [Compound 15]
70: Corn plant response rating [16, 23]
100: Morningglory plant response rating [1, 23] | Velvetleaf plant response rating [3, 23] | Velvetleaf plant response rating [10, 24] | Crabgrass, Large plant response rating [11, 24] | Foxtail, Giant plant response rating [13, 24]
90: Morningglory plant response rating [2, 24] | Barnyardgrass plant response rating [5, 24] | Pigweed plant response rating ([7]; 1000 g ai/ha) | Crabgrass, Large plant response rating [12, 23] | Foxtail, Giant plant response rating [14, 23]
20: Wheat plant response rating [4, 24] | Corn plant response rating [8, 24]
80: Pigweed plant response rating [6, 23] | Barnyardgrass plant response rating [9, 25]
50: Wheat plant response rating [15, 23]

CCCNC(=O)c1cc(SC)n(Cc2cccc(C(F)(F)F)c2)n1 [Compound 25]
30: Crabgrass, Large plant response rating [12, 23]
0: Morningglory plant response rating [2, 24] | Wheat plant response rating [4, 24] | Barnyardgrass plant response rating [5, 24] | Pigweed plant response rating ([7]; 1000 g ai/ha) | Corn plant response rating [8, 24] | Velvetleaf plant response rating [10, 24] | Wheat plant response rating [15, 23]
100: Morningglory plant response rating [1, 23]
20: Crabgrass, Large plant response rating [11, 24] | Foxtail, Giant plant response rating [14, 23]
10: Pigweed plant response rating [6, 23] | Barnyardgrass plant response rating [9, 25] | Foxtail, Giant plant response rating [13, 24]
50: Velvetleaf plant response rating [3, 23]
40: Corn plant response rating [16, 23]

O=C(NC1CC1)c1cc(CCCl)n(Cc2ccnc(C(F)(F)F)c2)n1 [Compound 194]
60: Velvetleaf plant response rating [3, 26]
50: Morningglory plant response rating [1, 26] | Pigweed plant response rating [6, 26]
0: Wheat plant response rating [15, 26]
